Source: patent US11752120B2, “Use of succinic acid in increasing sensitivity of bacteria to antibiotics” (SUN YAT-SEN UNIVERSITY, priority 2018, dated 2023)
Like-named read-outs stand apart in the source and are kept apart here.

Assays:
[1] = tested on: clinical Escherichia coli biofilm; conditions: mice
Procedure: (§1) […] of clinical Escherichia coli (YT3, YT11, YT12, YT16, YT17, YT21, YT22, YT23, YT28, YT33) were picked, monocloned into LB medium, and cultured overnight, then were transferred into 2 mL fresh LB medium at 1:200, and added with a 6 mm PE-50 biological catheter that was sterilized by UV, and cultured in a 37° C. incubator for culture for 24 hours. The bacterial solution was replaced with 1 mL of LB medium daily, and the catheter was continuously cultured for 3 days. The prepared biofilm was washed 5 times with 1 mL of sterile normal saline, and then placed in a 1.5 mL EP tube.
Further, mice were used as test animals, and the prepared clinical Escherichia coli biofilm was implanted into the mouse urethra to construct a mouse chronic urinary tract infection model for conducting an in vivo clinical Escherichia coli clearance test was performed: a 6-mm PE-50 biological catheter of a clinical Escherichia coli biofilm formed by culture for 3 days was implanted into the urethra of a 5-week-old Kunming female mouse (about 20 g). After 48 hours, mice were divided into 2 groups of 5 mice each, which were the ampicillin group and the ampicillin+succinic acid group. […] 24 hours after the last injection, the catheter tube was taken into normal saline to suspend the biofilm bacteria in the ultrasound, and gradient dilution and plate counting were performed to calculate the bacterial survival rate on the catheter biofilm. The calculation formula is the number of viable bacteria in the injection substance group/number of viable bacteria in the control group×100%.

[2] = tested on: clinical Escherichia coli biofilm; experiment: In vitro bactericidal assay of biofilm; type: cell-based; conditions: catheter biofilm, 6 hours; succinic acid 580 mg/kg; ampicillin 2000 mg/kg for YT16, 500 mg/kg for YT28
Procedure: as §1
The assay was divided into 4 groups: normal saline control group, succinic acid group, ampicillin group, ampicillin+succinic acid group, and the catheters were treated in a shaker at 37° C. and 200 rpm. A dosage of succinic acid was 580 mg/kg, and a dosage of ampicillin was 2000 mg/kg for YT16, and 500 mg/kg for YT28. After 6 hours, ultrasonic cleaning was conducted for 15 minutes, the biofilm on the catheter was eluted and thoroughly mixed, and after gradient dilution, spot plate counting was performed. The formula for calculating the bacterial survival rate is: number of viable bacteria in each group/number of viable bacteria in the control group×100%.

[3] = tested on: clinical Escherichia coli YT16 and YT28; conditions: 6 hours (FIG. 9)
Procedure: The cultured bacteria were washed and resuspended in normal saline, OD600 value was adjusted to 1.0, and 1 mL of bacterial cells were taken for ultrasonication, and after centrifugation, the supernatant was taken to determine the antibiotic content. The ampicillin ELISA rapid diagnostic kit (purchased from Shenzhen Lvshiyuan Biotechnology Co., Ltd., with a detection range of 2 to 1000 g/mL) was used for detection and the specific steps are as follows: 50 μL of sample (or standard) and 50 μL of antibody were added into a 96-well plate, mixed gently, and incubated at 25° C. for 30 minutes, and the plate was washed 4 to 5 times; 100 μL of enzyme standard was added, mixed gently, and incubated away from light at 25° C. for 30 minutes, and the plate was washed 4 to 5 times; 50 μL of substrates A and B was added respectively, mixed gently, and incubated away from light at 25° C. for 15 minutes; and finally, a stop solution was added to stop the reaction, and an enzyme-labeled instrument was set to measure the absorbance of the reaction product at 450 nm. A standard curve was drawn, with the percent absorbance of the standard as an ordinate and semi-log of the concentration of the ampicillin standard (ng/mL) as the abscissa. AMP actual concentration=sample detection concentration xdilution multiple.

[4] = tested on: clinical Escherichia coli YT16 and YT28; experiment: Viable bacteria count / survival rate after antibiotic with or without succinic acid in M9 medium; type: cell-based
Procedure: A single colony of clinical bacteria was picked from a solid LB plate and was inoculated in 5 mL LB liquid medium for culture at 37° C. and 200 rpm for 16 hours, and then was inoculated in 100 mL LB liquid medium at a ratio of 1:100 (v/v) and was cultured at 37° C. until OD600 value was 1.0. 20 mL of bacterial solution was collected and centrifuged at 8000 rpm for 5 minutes, the supernatant was cleared and bacterial cells were washed with an equal volume of 0.85% normal saline, and finally the bacterial cells were suspended with 1×M9 basic medium (containing 10 mM acetate), the OD value of the bacterial solution was adjusted to 0.5, and then 5 mL of the bacterial solution was aliquoted in a test tube for the following experimental studies.
The survival rates of the clinical bacteria in medium with adding succinic acid and without adding succinic acid at the same antibiotic concentration were compared.
The formula is the number of viable bacteria when different concentrations of succinic acid were added/the number of viable bacteria without adding succinic acid×100%.
In order to study whether clinical Escherichia coli has effect on penicillin antibiotics after adding succinic acid, two clinical Escherichia coli samples of YT16 and YT28 were prepared according to step 2 in Embodiment 1, 20 mM succinic acid and 3 kinds of penicillin were added respectively, […], the number of viable bacteria was counted, and the survival rate was calculated. […]

[5] = tested on: clinical Escherichia coli YT16 and YT28; conditions: 6 hours (FIG. 10)
Procedure: A concentration of the treated bacteria was adjusted to 106 CFU/mL, 1 mL of the treated bacteria was taken and transferred into a 1.5 mL EP tube, 10 μL of 3 mM DiOC2 (3,3′-diethyloxa-carbocyanine iodide) was added, and oscillation and incubation were performed for 30 minutes after mixing sufficiently. The bacteria were transferred to a flow cytometry analysis tube before use on the machine, a FACSCalibur flow cytometer (Becton Dickinson, San Jose, Calif., USA) was used for detection, and parameter settings were performed according to the instrument operating procedures. The dye DiOC2 (3) has a green fluorescence excitation wavelength of 488 nm, an emission wavelength of 530 nm, a red fluorescence excitation wavelength of 488 nm, and an emission wavelength of 610 nm. The ratio of the red light intensity to the green light intensity indicates the intensity of the membrane potential, and calculation formula of the proton motive force (PMF) value is LOG (10^3/2*Y mean/X mean). Y mean and X mean represent red light intensity and green light intensity, respectively. Determination was performed according the instructions of the BacLight bacterial membrane potential kit (Invitrogen) kit.

[6] = YT16, 10 mg/mL ampicillin + 1.25 mM succinic acid, 4 hours (FIG. 3)
[7] = YT16, 10 mg/mL ampicillin + 20 mM succinic acid, 4 hours (FIG. 3)
[8] = YT28, 10 mg/mL ampicillin + 1.25 mM succinic acid, 4 hours (FIG. 3)
[9] = YT28, 10 mg/mL ampicillin + 20 mM succinic acid, 4 hours (FIG. 3)

O=C(O)CCC(=O)O [succinic acid]
bactericidal efficiency increase on catheter biofilm ([1]; i.p. 590 mg/kg succinic acid + ampicillin (2000 or 500 mg/kg) twice a day for 3 days vs ampicillin group, 1st of the 9 strains (YT3 by order of b93)): 14 times | bactericidal efficiency increase on catheter biofilm ([1]; i.p. 590 mg/kg succinic acid + ampicillin twice a day for 3 days vs ampicillin group, 2nd of the 9 strains (YT11 by order of b93)): 5 times | bactericidal efficiency increase on catheter biofilm ([1]; i.p. 590 mg/kg succinic acid + ampicillin twice a day for 3 days vs ampicillin group, 3rd of the 9 strains (YT12 by order of b93)): 53 times | bactericidal efficiency increase on catheter biofilm ([1]; i.p. 590 mg/kg succinic acid + ampicillin twice a day for 3 days vs ampicillin group, 4th of the 9 strains (YT16 by order of b93)): 30 times | bactericidal efficiency increase on catheter biofilm ([1]; i.p. 590 mg/kg succinic acid + ampicillin twice a day for 3 days vs ampicillin group, 5th of the 9 strains (YT17 by order of b93)): 5 times | bactericidal efficiency increase on catheter biofilm ([1]; i.p. 590 mg/kg succinic acid + ampicillin twice a day for 3 days vs ampicillin group, 6th of the 9 strains (YT21 by order of b93)): 9 times | bactericidal efficiency increase on catheter biofilm ([1]; i.p. 590 mg/kg succinic acid + ampicillin twice a day for 3 days vs ampicillin group, 7th of the 9 strains (YT22 by order of b93)): 38 times | bactericidal efficiency increase on catheter biofilm ([1]; i.p. 590 mg/kg succinic acid + ampicillin twice a day for 3 days vs ampicillin group, 8th of the 9 strains (YT23 by order of b93)): 17 times | bactericidal efficiency increase on catheter biofilm ([1]; i.p. 590 mg/kg succinic acid + ampicillin twice a day for 3 days vs ampicillin group, 9th of the 9 strains (YT28 by order of b93)): 53 times | clearance of clinical Escherichia coli on the biofilms, used alone [2]: cannot clear | increase of the number of antibiotics (ampicillin) in the bacteria ([3]; YT16, ampicillin and succinic acid vs only ampicillin): 5.97 times | increase of the number of antibiotics (ampicillin) in the bacteria ([3]; YT28, ampicillin and succinic acid vs only ampicillin): 7.99 times | survival rate ([4]; YT16, 2.5 mg/mL ampicillin after adding 20 mM succinic acid, 4 hours): 30.06% | survival rate ([4]; YT16, 5 mg/mL ampicillin after adding 20 mM succinic acid, 4 hours): 2.06% | bacterial survival rate [4, 6]: 69.23% | bactericidal efficiency [4, 6]: 1.07 times | bacterial survival rate [4, 7]: 1.19% | bactericidal efficiency [4, 7]: 61 times | survival rate ([4]; YT16, 10 mg/mL ampicillin after adding 20 mM succinic acid, 4 hours (FIG. 1)): 0.41% | survival rate ([4]; YT16, 10 mg/mL ampicillin and 20 mM succinic acid, 1 hour (FIG. 2)): 71.54% | survival rate ([4]; YT16, 10 mg/mL ampicillin and 20 mM succinic acid, 4 hours (FIG. 2)): 0.78% | survival rate ([4]; YT16, 10 mg/mL ampicillin and 20 mM succinic acid, 7 hours (FIG. 2)): 0.01% | increase of sensitivity to penicillin G sodium salt ([4]; YT16, 20 mM succinic acid + 0.5 mg/mL penicillin G sodium salt, 4 hours): 4.96 times | increase of sensitivity to penicillin G sodium salt ([4]; YT16, 20 mM succinic acid + 0.75 mg/mL penicillin G sodium salt, 4 hours): 5.13 times | increase of sensitivity to carbenicillin ([4]; YT16, 20 mM succinic acid + 1.25 mg/mL carbenicillin, 4 hours): 1.99 times | increase of sensitivity to carbenicillin ([4]; YT16, 20 mM succinic acid + 2.5 mg/mL carbenicillin, 4 hours): 11.65 times | increase of sensitivity to amoxicillin ([4]; YT16, 20 mM succinic acid + 5 mg/mL amoxicillin, 4 hours): 15.86 times | increase of sensitivity to amoxicillin ([4]; YT16, 20 mM succinic acid + 7.5 mg/mL amoxicillin, 4 hours): 3.37 times | bactericidal efficiency ([4]; YT16, 20 mM succinic acid + 10 mg/mL ampicillin vs ampicillin only, at 1 hour (FIG. 2)): 1.33 time | bactericidal efficiency ([4]; YT16, 20 mM succinic acid + 10 mg/mL ampicillin vs ampicillin only, at 4 hours (FIG. 2)): 60.66 times | bactericidal efficiency ([4]; YT16, 20 mM succinic acid + 10 mg/mL ampicillin vs ampicillin only, at 7 hours (FIG. 2)): 1744.19 times | bactericidal efficiency increase ([4]; YT16, 20 mM succinic acid added to 2.5 mg/mL ampicillin, 4 hours, vs ampicillin alone): more than 2 times | bactericidal efficiency increase ([4]; YT16, 20 mM succinic acid added to 5 mg/mL ampicillin, 4 hours, vs ampicillin alone): 16.75 times | bactericidal efficiency increase ([4]; YT16, 20 mM succinic acid added to 10 mg/mL ampicillin, 4 hours, vs ampicillin alone (FIG. 1)): 62.25 times | bactericidal efficiency increase ([4]; YT16, 20 mM succinic acid added to 20 mg/mL ampicillin, 4 hours, vs ampicillin alone): 105.96 times | enhancement of sensitivity to different kinds of antibiotics ([4]; YT16, 20 mM succinic acid with gentamicin, ciprofloxacin, tetracycline, erythromycin, clindamycin or rifampin, 4 hours (FIG. 6)): about 2 times | survival rate ([4]; YT16, 20 mg/mL ampicillin after adding 20 mM succinic acid, 4 hours): 0.12% | survival rate ([4]; YT28, 2.5 mg/mL ampicillin after adding 20 mM succinic acid, 4 hours): 41.62% | survival rate ([4]; YT28, 5 mg/mL ampicillin after adding 20 mM succinic acid, 4 hours): 12.71% | bacterial survival rate [4, 8]: 80.31% | bactericidal efficiency [4, 8]: 1.07 times | bacterial survival rate [4, 9]: 4.24% | bactericidal efficiency [4, 9]: 20 times | survival rate ([4]; YT28, 10 mg/mL ampicillin after adding 20 mM succinic acid, 4 hours (FIG. 1)): 1.7% | survival rate ([4]; YT28, 10 mg/mL ampicillin and 20 mM succinic acid, 1 hour (FIG. 2)): 66.81% | survival rate ([4]; YT28, 10 mg/mL ampicillin and 20 mM succinic acid, 4 hours (FIG. 2)): 1.25% | survival rate ([4]; YT28, 10 mg/mL ampicillin and 20 mM succinic acid, 7 hours (FIG. 2)): 0.18% | increase of sensitivity to penicillin G sodium salt ([4]; YT28, 20 mM succinic acid + 0.5 mg/mL penicillin G sodium salt, 4 hours): 2.66 times | increase of sensitivity to penicillin G sodium salt ([4]; YT28, 20 mM succinic acid + 0.75 mg/mL penicillin G sodium salt, 4 hours): 9.34 times | increase of sensitivity to carbenicillin ([4]; YT28, 20 mM succinic acid + 1.25 mg/mL carbenicillin, 4 hours): 1.8 times | increase of sensitivity to carbenicillin ([4]; YT28, 20 mM succinic acid + 2.5 mg/mL carbenicillin, 4 hours): 15.85 times | increase of sensitivity to amoxicillin ([4]; YT28, 20 mM succinic acid + 5 mg/mL amoxicillin, 4 hours): 13.94 times | increase of sensitivity to amoxicillin ([4]; YT28, 20 mM succinic acid + 7.5 mg/mL amoxicillin, 4 hours): 31.85 times | bactericidal efficiency ([4]; YT28, 20 mM succinic acid + 10 mg/mL ampicillin vs ampicillin only, at 1 hour (FIG. 2)): 1.44 time | bactericidal efficiency ([4]; YT28, 20 mM succinic acid + 10 mg/mL ampicillin vs ampicillin only, at 4 hours (FIG. 2)): 21.45 times | bactericidal efficiency ([4]; YT28, 20 mM succinic acid + 10 mg/mL ampicillin vs ampicillin only, at 7 hours (FIG. 2)): 78.34 times | bactericidal efficiency increase ([4]; YT28, 20 mM succinic acid added to 2.5 mg/mL ampicillin, 4 hours, vs ampicillin alone): more than 1.65 times | bactericidal efficiency increase ([4]; YT28, 20 mM succinic acid added to 5 mg/mL ampicillin, 4 hours, vs ampicillin alone): 4.42 times | bactericidal efficiency increase ([4]; YT28, 20 mM succinic acid added to 10 mg/mL ampicillin, 4 hours, vs ampicillin alone (FIG. 1)): 21.06 times | bactericidal efficiency increase ([4]; YT28, 20 mM succinic acid added to 20 mg/mL ampicillin, 4 hours, vs ampicillin alone): 34.48 times | survival rate ([4]; YT28, 20 mg/mL ampicillin after adding 20 mM succinic acid, 4 hours): 0.79% | increase of proton motive force of the bacteria ([5]; YT16, succinic acid added vs control without): 1.2 times | increase of proton motive force of the bacteria ([5]; YT28, succinic acid added vs control without): 1.45 times
